Data as given in patent publication EP4745135A1 (Gluetacs Therapeutics (Shanghai) Co., Ltd., priority 2023, dated 2025).

How the values were obtained:
[1] = biological target: T1, human Cereblon WT GST-tagged protein (Homo sapiens, UniProt Q96SW2); experiment: CRBN-binding affinity, HTRF (CEREBLON BINDING kit); conditions: for inhibition at 0.5 µM: read-out: Inhibition Rate at 0.5 µM (%); for inhibition at 2 µM: read-out: Inhibition Rate at 2 µM (%)
T1 construct: purchased CISBIO 64BDCRBNPEH

IKZF2 = biological target: T2, IKZF2 (Homo sapiens, UniProt Q96SW2+Q9UKS7); experiment: Western blot, degradation of substrate protein in hPBMCs; assay type: cell-based
T2 construct: effects of the compounds of the present disclosure on the expression of target proteins in cells; endogenous in cells; host or cells: human PBMCs (Milecell Biotechnologies)

CK1α = biological target: T3, CK1α (Homo sapiens, UniProt P48729+Q96SW2); experiment: as above; assay type: cell-based
T3 construct: effects of the compounds of the present disclosure on the expression of target proteins in cells; endogenous in cells; host or cells: human PBMCs (Milecell Biotechnologies)

IKZF1 = biological target: T4, IKZF1 (Homo sapiens, UniProt Q13422+Q96SW2); experiment: as above; assay type: cell-based
T4 construct: effects of the compounds of the present disclosure on the expression of target proteins in cells; endogenous in cells; host or cells: human PBMCs (Milecell Biotechnologies)

IKZF3 = biological target: T5, IKZF3 (Homo sapiens, UniProt Q96SW2+Q9UKT9); experiment: as above; assay type: cell-based
T5 construct: effects of the compounds of the present disclosure on the expression of target proteins in cells; endogenous in cells; host or cells: human PBMCs (Milecell Biotechnologies)

WEE1 = biological target: T6, WEE1 (Homo sapiens, UniProt P30291+Q96SW2); experiment: as above; assay type: cell-based
T6 construct: effects of the compounds of the present disclosure on the expression of target proteins in cells; endogenous in cells; host or cells: human PBMCs (Milecell Biotechnologies)

GSPT1 = experiment: as above; assay type: cell-based, Human
[2] = tested on: Human breast cancer cell (MCF-7); experiment: Tumor cell proliferation inhibition (CellTiter-Meiluncell luminescent cell viability assay); conditions: MCF7, 96 h; for inhibition at 0.01 µM: read-out: Inhibition Rate at 10 nM (%); for inhibition at 0.5 µM: read-out: Inhibition Rate at 500 nM (%)
[3] = tested on: Human acute T lymphocytic leukemia cell (Molt4); experiment: as above; conditions: MOLT-4, 96 h; for inhibition at 0.01 µM: read-out: Inhibition Rate at 10 nM (%); for inhibition at 0.5 µM: read-out: Inhibition Rate at 500 nM (%)
[4] = tested on: Human multiple myeloma cell (MM.1S); experiment: as above; conditions: for inhibition at 0.01 µM: Homo sapiens, MM1.S, 96 h, read-out: Inhibition Rate at 10 nM (%); for Inhibition Rate at 500 nM (%): MM.1S, 96 hours
[5] = tested on: Human myeloid monocytic leukemia cell (MV-4-11); experiment: as above; conditions: MV4-11, 96 h; for inhibition at 0.01 µM: read-out: Inhibition Rate at 10 nM (%); for inhibition at 0.5 µM: read-out: Inhibition Rate at 500 nM (%)
Experimental: The tumor cells used herein were cultured in a cell culture medium listed in table 2 at 37°C in an incubator with 5% CO2. Prior to experimentation, all cell lines used were correctly identified by STR profiling, and tested negative for mycoplasma contamination using a mycoplasma detection kit through routine screenings.
The IC50 values of the compounds of the present disclosure (including the compounds in Table 1 and Examples) were determined using the CellTiter-Meiluncell Luminescent Cell Viability Assay Kit from Dalian Meilun Biotech Co., Ltd. The detailed procedure is as follows: Tumor cells were seeded in 96-well cell culture plates at the densities specified in Table 3. On the following day, the test compounds of the present disclosure were subjected to serial dilution. The dilution can be performed according to one of the following two methods: • (1) The first dilution method: The test compounds of the present disclosure (including the compounds in Table 1 and Examples) were subjected to 5-fold serial dilutions starting from a highest concentration of 2000 µM, resulting in a total of 9 concentrations from high to low (2000, 400, 80, 16, 3.2, 0.64, 0.128, 0.0256, 0.00512 µM). Subsequently, 0.5 µL of the test compound dilution was transferred into the 96-well plate containing the cells, with each well containing 100 µL of cell culture medium. […] Into the 96-well plate, the diluted test compounds and corresponding detection reagents were added, resulting in final test compound concentrations of 500 nM and 10 nM, respectively. The experimental procedure is described below using the diluted 2 µM test compound as an example.
0.5 µL of the aforementioned diluted compound of the present disclosure (including the compounds in Table 1 and Examples) was added to the seeded cells in 100 µL of medium, yielding a final test compound concentration of 10 nM. After the cells were treated with the compounds of the present disclosure for a specified period, the cell viability assay reagent was added to the culture medium according to the kit's instructions to determine cell viability. […] All controls were treated using the same procedure as the compounds of the present disclosure. The growth inhibition curves for the compounds of the present disclosure were plotted using Prism GraphPad software, and the IC50 values were calculated therefrom.

[6] = 24 hours treatment, compounds at 50 nM and 500 nM (concentration behind the class not stated)
[7] = Western blot, 24 hours of compound treatment, compounds tested at 50 nM and 500 nM (concentration for the table not stated)

T1 sequence (Q96SW2 whole entry): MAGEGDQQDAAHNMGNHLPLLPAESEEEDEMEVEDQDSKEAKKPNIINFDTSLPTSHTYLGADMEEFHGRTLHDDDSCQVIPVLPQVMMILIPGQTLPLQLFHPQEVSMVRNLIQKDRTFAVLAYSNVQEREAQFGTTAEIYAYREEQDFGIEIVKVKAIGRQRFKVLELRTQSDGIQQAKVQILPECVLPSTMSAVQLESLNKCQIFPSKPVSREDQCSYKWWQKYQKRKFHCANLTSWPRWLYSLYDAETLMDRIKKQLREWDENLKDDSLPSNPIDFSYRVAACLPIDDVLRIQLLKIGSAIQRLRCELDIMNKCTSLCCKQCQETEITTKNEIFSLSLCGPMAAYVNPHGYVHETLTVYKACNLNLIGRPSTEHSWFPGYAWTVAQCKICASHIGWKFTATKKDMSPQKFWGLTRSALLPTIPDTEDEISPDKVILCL
T6 sequence (P30291 whole entry): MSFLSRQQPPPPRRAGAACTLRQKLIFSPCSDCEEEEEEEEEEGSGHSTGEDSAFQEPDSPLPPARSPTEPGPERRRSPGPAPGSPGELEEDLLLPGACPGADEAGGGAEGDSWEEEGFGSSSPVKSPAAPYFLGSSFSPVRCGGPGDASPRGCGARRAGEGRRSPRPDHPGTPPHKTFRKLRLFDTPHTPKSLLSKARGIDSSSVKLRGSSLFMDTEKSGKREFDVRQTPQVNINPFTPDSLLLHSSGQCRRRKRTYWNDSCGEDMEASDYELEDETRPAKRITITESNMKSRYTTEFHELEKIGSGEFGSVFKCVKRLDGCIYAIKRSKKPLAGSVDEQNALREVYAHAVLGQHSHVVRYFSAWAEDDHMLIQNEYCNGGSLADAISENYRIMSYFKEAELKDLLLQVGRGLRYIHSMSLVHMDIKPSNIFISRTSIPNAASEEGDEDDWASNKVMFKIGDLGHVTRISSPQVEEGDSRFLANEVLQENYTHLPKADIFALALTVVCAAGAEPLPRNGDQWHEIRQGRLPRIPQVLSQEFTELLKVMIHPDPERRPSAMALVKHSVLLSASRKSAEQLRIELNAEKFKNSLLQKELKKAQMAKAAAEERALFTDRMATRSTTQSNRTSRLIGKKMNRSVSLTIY
T6 sequence (Q96SW2 whole entry): as the sequence (Q96SW2 whole entry) above
T6 sequence (Q16531 whole entry partner): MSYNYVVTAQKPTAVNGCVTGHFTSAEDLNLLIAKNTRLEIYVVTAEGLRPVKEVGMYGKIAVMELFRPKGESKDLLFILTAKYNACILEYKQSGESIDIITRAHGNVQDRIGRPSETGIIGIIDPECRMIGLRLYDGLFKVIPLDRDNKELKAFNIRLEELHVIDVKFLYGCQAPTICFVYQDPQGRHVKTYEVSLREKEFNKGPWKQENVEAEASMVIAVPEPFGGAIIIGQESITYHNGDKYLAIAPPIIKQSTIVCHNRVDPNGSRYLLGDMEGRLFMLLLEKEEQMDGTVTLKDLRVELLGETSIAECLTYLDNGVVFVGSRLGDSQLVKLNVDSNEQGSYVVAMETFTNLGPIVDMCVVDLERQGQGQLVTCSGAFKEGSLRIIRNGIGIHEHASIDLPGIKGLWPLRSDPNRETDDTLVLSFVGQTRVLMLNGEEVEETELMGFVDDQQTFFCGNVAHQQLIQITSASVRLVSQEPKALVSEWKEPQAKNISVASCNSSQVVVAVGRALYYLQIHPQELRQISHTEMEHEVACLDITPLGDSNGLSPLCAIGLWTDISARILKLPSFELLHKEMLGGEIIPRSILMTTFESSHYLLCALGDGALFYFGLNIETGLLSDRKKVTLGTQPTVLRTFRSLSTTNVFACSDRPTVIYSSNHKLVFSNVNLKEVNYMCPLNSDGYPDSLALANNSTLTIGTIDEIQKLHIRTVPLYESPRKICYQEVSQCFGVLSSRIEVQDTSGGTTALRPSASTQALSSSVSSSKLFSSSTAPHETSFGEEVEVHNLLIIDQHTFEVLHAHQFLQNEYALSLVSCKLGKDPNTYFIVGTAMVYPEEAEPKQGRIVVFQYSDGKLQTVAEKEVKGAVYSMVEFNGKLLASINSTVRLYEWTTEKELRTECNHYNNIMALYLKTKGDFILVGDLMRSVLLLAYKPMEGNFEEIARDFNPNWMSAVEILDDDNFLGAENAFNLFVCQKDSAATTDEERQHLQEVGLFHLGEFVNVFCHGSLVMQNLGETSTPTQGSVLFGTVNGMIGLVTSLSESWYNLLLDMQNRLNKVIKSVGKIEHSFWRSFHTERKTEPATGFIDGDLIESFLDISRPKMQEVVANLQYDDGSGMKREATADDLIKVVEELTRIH
T3 sequence (P48729 whole entry): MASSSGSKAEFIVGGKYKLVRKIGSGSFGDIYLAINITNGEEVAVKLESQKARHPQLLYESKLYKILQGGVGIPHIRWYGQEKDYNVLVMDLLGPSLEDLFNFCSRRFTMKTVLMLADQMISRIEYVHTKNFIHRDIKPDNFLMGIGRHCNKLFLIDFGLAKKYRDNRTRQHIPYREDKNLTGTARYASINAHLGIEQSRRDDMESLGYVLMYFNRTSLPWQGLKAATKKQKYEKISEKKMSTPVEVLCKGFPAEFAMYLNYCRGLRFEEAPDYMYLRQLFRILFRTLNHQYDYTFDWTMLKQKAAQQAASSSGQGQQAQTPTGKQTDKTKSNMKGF
T3 sequence (Q96SW2 whole entry): as the sequence (Q96SW2 whole entry) above
T3 sequence (Q16531 whole entry partner): as the sequence (Q16531 whole entry partner) above
T5 sequence (Q9UKT9 whole entry): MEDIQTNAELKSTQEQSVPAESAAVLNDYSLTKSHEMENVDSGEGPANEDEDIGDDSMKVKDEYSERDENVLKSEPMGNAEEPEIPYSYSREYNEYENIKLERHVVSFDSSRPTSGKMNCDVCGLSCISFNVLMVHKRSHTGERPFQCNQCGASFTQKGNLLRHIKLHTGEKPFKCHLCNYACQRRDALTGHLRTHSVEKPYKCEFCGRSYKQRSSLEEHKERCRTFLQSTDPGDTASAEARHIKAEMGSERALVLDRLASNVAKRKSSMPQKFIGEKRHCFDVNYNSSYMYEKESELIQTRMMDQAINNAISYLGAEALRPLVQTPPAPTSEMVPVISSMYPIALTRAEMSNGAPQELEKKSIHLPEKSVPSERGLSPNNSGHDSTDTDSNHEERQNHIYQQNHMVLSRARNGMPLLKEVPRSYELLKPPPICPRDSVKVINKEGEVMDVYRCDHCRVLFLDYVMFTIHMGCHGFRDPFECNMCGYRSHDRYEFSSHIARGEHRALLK
T5 sequence (Q96SW2 whole entry): as the sequence (Q96SW2 whole entry) above
T5 sequence (Q16531 whole entry partner): as the sequence (Q16531 whole entry partner) above
T2 sequence (Q9UKS7 whole entry): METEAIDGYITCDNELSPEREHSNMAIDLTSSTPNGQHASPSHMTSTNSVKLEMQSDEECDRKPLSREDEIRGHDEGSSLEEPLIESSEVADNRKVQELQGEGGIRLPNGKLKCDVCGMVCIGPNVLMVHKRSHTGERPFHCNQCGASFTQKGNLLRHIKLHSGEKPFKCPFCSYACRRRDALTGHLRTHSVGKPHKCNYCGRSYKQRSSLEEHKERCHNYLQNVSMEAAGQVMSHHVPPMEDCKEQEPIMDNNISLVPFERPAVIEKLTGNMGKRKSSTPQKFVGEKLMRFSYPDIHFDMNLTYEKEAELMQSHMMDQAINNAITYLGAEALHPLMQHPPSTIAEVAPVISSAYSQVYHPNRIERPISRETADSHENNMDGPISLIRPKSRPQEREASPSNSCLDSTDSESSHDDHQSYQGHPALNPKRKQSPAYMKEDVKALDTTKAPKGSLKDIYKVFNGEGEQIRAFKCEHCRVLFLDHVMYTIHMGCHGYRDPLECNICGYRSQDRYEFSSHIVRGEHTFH
T2 sequence (Q96SW2 whole entry): as the sequence (Q96SW2 whole entry) above
T2 sequence (Q16531 whole entry partner): as the sequence (Q16531 whole entry partner) above
T4 sequence (Q13422 whole entry): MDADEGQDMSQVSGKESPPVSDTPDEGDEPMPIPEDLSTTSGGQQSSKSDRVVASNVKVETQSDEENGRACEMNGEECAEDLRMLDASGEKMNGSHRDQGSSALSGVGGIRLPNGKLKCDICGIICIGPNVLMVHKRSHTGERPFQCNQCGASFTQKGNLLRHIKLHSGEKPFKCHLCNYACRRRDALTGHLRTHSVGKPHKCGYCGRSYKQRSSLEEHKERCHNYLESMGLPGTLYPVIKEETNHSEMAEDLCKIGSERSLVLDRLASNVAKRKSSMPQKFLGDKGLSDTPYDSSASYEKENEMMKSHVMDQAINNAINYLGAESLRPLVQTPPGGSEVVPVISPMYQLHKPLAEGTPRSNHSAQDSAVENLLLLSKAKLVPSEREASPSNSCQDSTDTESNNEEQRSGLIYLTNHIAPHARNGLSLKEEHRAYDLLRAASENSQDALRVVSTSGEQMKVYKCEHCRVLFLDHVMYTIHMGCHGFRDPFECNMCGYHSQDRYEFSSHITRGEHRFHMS
T4 sequence (Q96SW2 whole entry): as the sequence (Q96SW2 whole entry) above
T4 sequence (Q16531 whole entry partner): as the sequence (Q16531 whole entry partner) above

SMILES | inhibition at 0.5 µM [1] [%] | inhibition at 2 µM [1] [%] | IKZF2 substrate protein remaining % (IKZF2; [6]) | CK1α substrate protein remaining % (CK1α; [6]) | IKZF 1 substrate protein remaining % (IKZF1; [6]) | IKZF3 substrate protein remaining % (IKZF3; [6]) | Wee1 substrate protein remaining % (WEE1; [6]) | GSPT1 substrate protein remaining % (GSPT1; [6]) | inhibition at 0.01 µM [2] [%] | inhibition at 0.5 µM [2] [%] | further results
O=C1CCC(N2Cc3c(CN4CCC(c5ncnc6sc7c(c56)CCC7)CC4)cccc3C2=S)C(=O)N1 (stereo not drawn) [GT-08934, 3-(4-((4-(6,7-dihydro-5H-cyclopenta[4,5]thieno[2,3-d]pyrimidin-4-yl)piperidin-1-yl)methyl)-1-thioxoisoindolin-2-yl)piperidine-2,6-dione] | 40 to 53 | 53 to 60 | B (80%< substrate protein remaining %≤ 100%) | B (80%< substrate protein remaining %≤ 100%) | A (0% ≤ substrate protein remaining % ≤ 80%) | A (0% ≤ substrate protein remaining % ≤ 80%) | A (0% ≤ substrate protein remaining % ≤ 80%) | A (0% ≤ substrate protein remaining % ≤ 80%) | 30 to 40 | 40 to 50 | 
O=C1CCC(N2Cc3c(CN4CCN(c5ncnc6sc7c(c56)CCC7)CC4)cccc3C2=S)C(=O)N1 (stereo not drawn) [GT-08925, 3-(4-((4-(6,7-dihydro-5H-cyclopenta[4,5]thieno[2,3-d]pyrimidin-4-yl)piperazin-1-yl)methyl)-1-thioxoisoindolin-2-yl)piperidine-2,6-dione] | 60 to 80 | 80 to 100 | A (0% ≤ substrate protein remaining % ≤ 80%) | B (80%< substrate protein remaining %≤ 100%) | B (80%< substrate protein remaining %≤ 100%) | A (0% ≤ substrate protein remaining % ≤ 80%) | A (0% ≤ substrate protein remaining % ≤ 80%) | B (80%< substrate protein remaining %≤ 100%) | 60 to 70 | 60 to 70 | 
Cc1nc(C2CCN(Cc3cccc4c3CN(C3CCC(=O)NC3=O)C4=S)CC2)c2c(-c3ccccc3)csc2n1 (stereo not drawn) [GT-08931, 3-(4-((4-(2-methyl-5-phenylthieno[2,3-d]pyrimidin-4-yl)piperidin-1-yl)methyl)-1-thioxoisoindolin-2-yl)piperidine-2,6-dione] | 40 to 53 | 80 to 100 |  |  |  |  |  |  | 30 to 40 | 60 to 70 | 
O=C1CCC(N2Cc3c(CN4CC=C(c5ncnc6sccc56)CC4)cccc3C2=S)C(=O)N1 (stereo not drawn) [GT-08937, 3-(4-((4-(thieno[2,3-d]pyrimidin-4-yl)-3,6-dihydropyridin-1(2H)-yl)methyl)-1-thioxoisoindolin-2-yl)piperidine-2,6-dione] | 60 to 80 | 80 to 100 | B (80%< substrate protein remaining %≤ 100%) | B (80%< substrate protein remaining %≤ 100%) | B (80%< substrate protein remaining %≤ 100%) | B (80%< substrate protein remaining %≤ 100%) | A (0% ≤ substrate protein remaining % ≤ 80%) | A (0% ≤ substrate protein remaining % ≤ 80%) | 30 to 40 | 40 to 50 | 
Cc1nc(N2CCN(Cc3cccc4c3CN(C3CCC(=O)NC3=O)C4=S)CC2)c2c3c(sc2n1)CCCC3 (stereo not drawn) [GT-08923, 3-(4-((4-(2-methyl-5,6,7,8-tetrahydrobenzo[4,5]thieno[2,3-d]pyrimidin-4-yl)piperazin-1-yl)methyl)-1-thioxoisoindolin-2-yl)piperidine-2,6-dione] | 30 to 40 | 80 to 100 | B (80%< substrate protein remaining %≤ 100%) | B (80%< substrate protein remaining %≤ 100%) | B (80%< substrate protein remaining %≤ 100%) | B (80%< substrate protein remaining %≤ 100%) | A (0% ≤ substrate protein remaining % ≤ 80%) | B (80%< substrate protein remaining %≤ 100%) | 70 to 80 | 70 to 80 | 
O=C1CCC(N2Cc3cc(CN4CCN(c5nc(N6CCOCC6)nc6c5SCC6)CC4)ccc3C2=S)C(=O)N1 (stereo not drawn) [GT-09329, 3-(5-((4-(2-morpholino-6,7-dihydrothieno[3,2-d]pyrimidin-4-yl)piperazin-1-yl)methyl)-1-thioxoisoindolin-2-yl)piperidine-2,6-dione] | 60 to 80 | 80 to 100 | A (0% ≤ substrate protein remaining % ≤ 80%) | B (80%< substrate protein remaining %≤ 100%) | B (80%< substrate protein remaining %≤ 100%) | B (80%< substrate protein remaining %≤ 100%) | B (80%< substrate protein remaining %≤ 100%) | A (0% ≤ substrate protein remaining % ≤ 80%) | 20 to 30 | 40 to 50 | 
O=C1CCC(N2Cc3c(CN4CC=C(c5n[nH]c6cc(F)ccc56)CC4)cccc3C2=S)C(=O)N1 (stereo not drawn) [GT-08850, 3-(4-((4-(6-fluoro-1H-indazol-3-yl)-3,6-dihydropyridin-1(2H)-yl)methyl)-1-thioxoisoindolin-2-yl)piperidine-2,6-dione] | 60 to 80 | 80 to 100 |  |  |  |  |  |  | 40 to 50 | 50 to 60 | IKZF2 substrate protein remaining % (IKZF2; [7]): B (80%< substrate protein remaining %≤ 100%); CK1α substrate protein remaining % (CK1α; [7]): B (80%< substrate protein remaining %≤ 100%); IKZF 1 substrate protein remaining % (IKZF1; [7]): B (80%< substrate protein remaining %≤ 100%); IKZF3 substrate protein remaining % (IKZF3; [7]): B (80%< substrate protein remaining %≤ 100%); Wee1 substrate protein remaining % (WEE1; [7]): B (80%< substrate protein remaining %≤ 100%); GSPT1 substrate protein remaining % (GSPT1; [7]): A (0% ≤ substrate protein remaining % ≤ 80%)
O=C1CCC(N2Cc3c(CN4CCC(c5ncnc6sccc56)CC4)cccc3C2=S)C(=O)N1 (stereo not drawn) [GT-08928, 3-(4-((4-(thieno[2,3-d]pyrimidin-4-yl)piperidin-1-yl)methyl)-1-thioxoisoindolin-2-yl)piperidine-2,6-dione] | 60 to 80 | 80 to 100 | B (80%< substrate protein remaining %≤ 100%) | B (80%< substrate protein remaining %≤ 100%) | B (80%< substrate protein remaining %≤ 100%) | B (80%< substrate protein remaining %≤ 100%) | A (0% ≤ substrate protein remaining % ≤ 80%) | B (80%< substrate protein remaining %≤ 100%) | 40 to 50 | 60 to 70 | 
O=C1CCC(N2Cc3cc(CN4CCC(c5nccc(Cl)c5Cl)CC4)ccc3C2=S)C(=O)N1 (stereo not drawn) [GT-08488, 3-(5-((4-(3,4-dichloropyridin-2-yl)piperidin-1-yl)methyl)-1-thioxoisoindolin-2-yl)piperidine-2,6-dione] | 60 to 80 | 80 to 100 |  |  |  |  |  |  |  |  | inhibition at 0.01 µM [3]: 10 to 20%; inhibition at 0.5 µM [3]: 70 to 80%; inhibition at 0.01 µM [4]: 10 to 20%; Inhibition Rate at 500 nM (%) [4]: la8; IKZF2 substrate protein remaining % (IKZF2; [7]): B (80%< substrate protein remaining %≤ 100%); CK1α substrate protein remaining % (CK1α; [7]): B (80%< substrate protein remaining %≤ 100%); IKZF 1 substrate protein remaining % (IKZF1; [7]): B (80%< substrate protein remaining %≤ 100%); IKZF3 substrate protein remaining % (IKZF3; [7]): B (80%< substrate protein remaining %≤ 100%); Wee1 substrate protein remaining % (WEE1; [7]): B (80%< substrate protein remaining %≤ 100%); inhibition at 0.01 µM [5]: 18 to 25%; inhibition at 0.5 µM [5]: 80 to 100%; GSPT1 substrate protein remaining % (GSPT1; [7]): A (0% ≤ substrate protein remaining % ≤ 80%)
O=C1CCC(N2Cc3cc(CN4CCC(c5c[nH]c6ncccc56)CC4)ccc3C2=S)C(=O)N1 (stereo not drawn) [GT-09268, 3-(5-((4-(1H-pyrrolo[2,3-b]pyridin-3-yl)piperidin-1-yl)methyl)-1-thioxoisoindolin-2-yl)piperidine-2,6-dione] | 53 to 60 | 80 to 100 | B (80%< substrate protein remaining %≤ 100%) | B (80%< substrate protein remaining %≤ 100%) | B (80%< substrate protein remaining %≤ 100%) | B (80%< substrate protein remaining %≤ 100%) | B (80%< substrate protein remaining %≤ 100%) | A (0% ≤ substrate protein remaining % ≤ 80%) |  |  | inhibition at 0.01 µM [3]: 40 to 50%; inhibition at 0.5 µM [3]: 40 to 50%; inhibition at 0.01 µM [4]: 30 to 40%; Inhibition Rate at 500 nM (%) [4]: la7; inhibition at 0.01 µM [5]: 5 to 10%; inhibition at 0.5 µM [5]: 60 to 80%
